Measured values as given in US9006185B2, “Use of cell-permeable peptide inhibitors of the JNK signal transduction pathway for the treatment of various diseases” (Xigen Inflammation Ltd., priority 2008, dated 2015).
Entries after “also recorded” stand apart in the source; their conditions may differ.

Experiments:
C57BL/6 mice = test: Bleomycin induced lung fibrosis; type: in vivo; conditions: for histology: inflammatory cells accumulation, fibrotic areas, loss of lung architecture: day 10
Description: In order to determine the activity of the exemplary all-D retro-inverso IB(s) peptide XG-102 (SEQ ID NO: 11) in the treatment of Chronic Obstructive Pulmonary Disease (COPD) XG-102 (SEQ ID NO: 11) is used in an animal model of Bleomycin induced acute lung inflammation and fibrosis. The protocol of bleomycin induced inflammation and fibrosis has been described before in the literature. The aim of the Experiment was to investigate the effect of XG-102 (SEQ ID NO: 11) by subcutaneous (s.c.) route on neutrophil recruitment in broncho alveolar lavage (BAL) and lung in bleomycin induced inflammation and fibrosis: • at 1 day after a single bleomycin administration (10 mg/kg) • and at day 10 with the development of fibrosis 1) Method and Experimental Approach • The test compound XG-102 (SEQ ID NO: 11) at two doses and vehicle control were given s.c. with a single intranasal administration of bleomycin and mice were analyzed after 1 and 10 days. The animals used in the model were 10 C57BL/6 mice (8 weeks old) per group. The experimental groups included vehicle, 0.001 mg/kg XG-102 (SEQ ID NO: 11) and 0.1 mg/kg XG-102 (SEQ ID NO: 11), and the treatment consisted of repeated sub-cutaneous administration of XG-102 (SEQ ID NO: 11), prior to bleomycin administration then every 3 days. Acute lung inflammation at 24 h was monitored by BAL lavage, cytology, cell counts, and lung myeloperoxidase activity. The effect of the compound was compared with vehicle controls. Lung fibrosis was assessed histologically using hematoxylin and eosin staining at day 10 after the single dose of bleomycin. […] 1.4) Cell Count and Determination • Total cell count was determined in BAL fluid using a Malassez hemocytometer. […] 1.5) TNF Measurement • TNF level in BALF was determined using ELISA assay kits (Mouse DuoSet, R&D system, Minneapolis, USA) according to manufacturer's instructions. […] 1.6) MPO-Measurement • MPO-levels were measured upon administration of XG-102. […]

[1] = tested on: Primary cultured macrophages; type: cell-based
Procedure: FIG. 24 Primary cultured macrophages were incubated with XG-102 (SEQ ID NO: 11) and extensively washed.

THP-1 cells = test: LPS-induced cytokine and chemokine release in THP-1 cells; type: cell-based
[2] = tested on: Varicella-Zoster Virus (VZV); test: VZV-BAC-Luc replication in HFFs, luciferase assay; type: cell-based, human; conditions: 24 h, 0.25, 0.5, 1.0 μM tested
Procedure: Virus yield was measured by luciferase assay. Samples were in triplicate and the average luminescence is shown; error bars represent the standard deviation of the mean.

[3] = tested on: recombinant JNK1, JNK2 and JNK3; test: Solid phase kinase assay, phosphorylation of c-Jun, ATF2 and Elk1 by recombinant JNKs; type: biochemical; conditions: GST-Jun (aa 1-73), JNK1, JNK2, JNK3, 0-250 μM dosage study
Procedure: The effects of the peptides on JNKs-mediated phosphorylation of their target transcription factors were investigated in vitro. Recombinant and non activated JNK1, JNK2 and JNK3 were produced using a TRANSCRIPTION AND TRANSLATION rabbit reticulocyte lysate kit (Promega) and used in solid phase kinase assays with c-Jun, ATF2 and Elk1, either alone or fused to glutathione-S-transferase (GST), as substrates. Dose response studies were performed wherein L-TAT or L-TAT-IB1(s) peptides (0-25 μM) were mixed with the recombinant JNK1, JNK2, or JNK3 kinases in reaction buffer (20 mM Tris-acetate, 1 mM EGTA, 10 mM p-nitrophenyl-phosphate (pNPP), 5 mM sodium pyrophosphate, 10 mM p-glycerophosphate, 1 mM dithiothreitol) for 20 minutes. The kinase reactions were then initiated by the addition of 10 mM MgCl2 and 5 pCi ^33P-dATP and 1 μg of either GST-Jun (aa 1-89), GST-AFT2 (aa 1-96) or GST-ELK1 (aa 307-428). GST-fusion proteins were purchased from Stratagene (La Jolla, Calif.).
Ten μL of glutathione-agarose beads were also added to the mixture. Reaction products were then separated by SDS-PAGE on a denaturing 10% polyacrylamide gel. Gels were dried and subsequently exposed to X-ray films (Kodak). […] The ability of D-TAT, D-TAT-IB1(s) and L-TAT-IB1(s) peptides (0-250 μM dosage study) to inhibit GST-Jun (aa 1-73) phosphorylation by recombinant JNK1, JNK2, and JNK3 by were analyzed as described above. […]

[4] = kept at 4-8° C
Procedure: Unused diluted material could be stored for up to 7 days if kept at 4-8° C. c) Experimental Procedure

Question: Which “lymphocyte recruitment and total cells in bronchioalveolar lavage space” value (C57BL/6 mice; 0.001 mg/kg s.c., 3 times in 10 days) does the source give for `CC(C)C[C@@H](NC(=O)[C@@H](Cc1ccccc1)NC(=O)[C@H]1CCCN1C(=O)[C@@H](CCC(N)=O)NC(=O)[C@H](NC(=O)[C@H]1CCCN1C(=O)[C@@H](CCCNC(=N)N)NC(=O)[C@@H](CO)NC(=O)[C@@H](CCC(N)=O)NC(=O)[C@H](N)CC(=O)O)C(C)C)C(=O)N[C@H](CC(N)=O)C(=O)N[C@H](CC(C)C)C(=O)N[C@@H](C(=O)N[C@@H](C(=O)N1CCC[C@@H]1C(=O)N[C@H](CCCNC(=N)N)C(=O)N[C@H](CCCCN)C(=O)N1CCC[C@@H]1C(=O)N[C@H](CCCNC(=N)N)C(=O)N1CCC[C@@H]1C(=O)N1CCC[C@@H]1C(=O)N[C@H](CCCNC(=N)N)C(=O)N[C@H](CCCNC(=N)N)C(=O)N[C@H](CCCNC(=N)N)C(=O)N[C@H](CCC(N)=O)C(=O)N[C@H](CCCNC(=N)N)C(=O)N[C@H](CCCNC(=N)N)C(=O)N[C@H](CCCCN)C(=O)N[C@H](CCCCN)C(=O)N[C@H](CCCNC(=N)N)C(=O)NCC(=O)O)[C@H](C)O)[C@H](C)O` [XG-102] here?
Answer: reduced significantly the lymphocyte recruitment and the number of total cells recruited

Question: And the “histology: inflammatory cells accumulation, fibrotic areas, loss of lung architecture” value (C57BL/6 mice; high dose 0.1 mg/kg)?
Answer: not with the high dose

Question: What about the “histology: inflammatory cells accumulation, fibrotic areas, loss of lung architecture” value (C57BL/6 mice; low dose 0.001 mg/kg, 0.001 mg/kg) of the same compound?
Answer: A decrease of these parameters was observed; also recorded: attenuates the Bleomycin-induced fibrosis

Question: What about the “cytotoxicity at effective concentrations” value (murine macrophages) of the same compound?
Answer: non-cytotoxic concentrations

Question: And the “LPS-induced TNFa, IL-6 and Rantes release” value (murine macrophages; murine macrophages)?
Answer: reducing LPS-induced TNFa, IL-6 and Rantes release in murine macrophages

Question: And the “incorporation into primary macrophages” value [1]?
Answer: strongly incorporated into primary macrophages

Question: What about the “LPS-induced TNFa, IL-6 and MCP-1 release” value (THP-1 cells) of the same compound?
Answer: reducing LPS-induced TNFa, IL-6 and MCP-1 release in THP-1 cells

Question: What about the “concentration preventing VZV replication (lowest concentration tested)” value [2] of the same compound?
Answer: ≤ 0.25 µM

Question: What about the “efficiency in decreasing JNK-mediated phosphorylation of c-Jun, fold less than L-TAT-IB1(s)” value [3] of the same compound?
Answer: 10-20 fold

Question: What about the “storage of unused diluted material” value [4] of the same compound?
Answer: up to 7 days
